The subject of data set [1] is human neuroblastoma cell lines SH-SY5Y treated with 1-methyl-4-phenylpyridinium (MPP+). The experiment in a line: Improvement of mitochondrial function (Alamar Blue mitochondrial oxidation reduction activity) in MPP+-treated SH-SY5Y cells. Type of data set: cell-based. The settings on record: 1.5 mM MPP+, relative to cells in DMSO alone = 100%, read-out: Fluorescence Intensity (%); for activity at 0.01 µg/mL: compound 0.01 μg/ml; for activity at 0.03 µg/mL: compound 0.03 μg/ml; for activity at 0.1 µg/mL: compound 0.1 μg/ml; for activity at 0.3 µg/mL: compound 0.3 μg/ml; for activity at 1 µg/mL: compound 1 μg/ml. Here is the method: In human neuroblastoma cell lines SH-SY5Y in which mitochondrial function was damaged by MPP^+ treatment (Bollimuntha S. et al., J Biol Chem, 280, 2132-2140 (2005) and Shang T. et al., J Biol Chem, 280, 34644-34653 (2005)), the improvement of mitochondrial function was evaluated on the basis of the measurement value for mitochondrial oxidation reduction activity using Alamar Blue fluorescent dye after the compound addition (Nakai M. et al, Exp Neurol, 179, 103-110 (2003)).
The human neuroblastoma cell lines SH-SY5Y were cultured in Dulbecco's Modified Eagle's Medium containing 10% fetal bovine serum (DMEM containing 50 units/ml penicillin and 50 μg/ml streptomycin as antibiotics) at 37° C. in the presence of 5% carbon dioxide. Cells were scattered on a poly-D-lysine-coated 96-well black plate at a concentration of 3−6×10^4 cells/cm^2 (medium amount: 100 μl/well) and cultured in the medium for two days. Further, the medium was changed to DMEM containing a 1% N2 supplement (N2-DMEM) or to a medium (100 μl/well) in which 1.5 mM MPP^+ was dissolved. The cells were cultured therein for 39 to 48 hours, and then subjected to a mitochondrial oxidation reduction activity measurement system. A sample compound that had been previously dissolved in dimethyl sulfoxide (DMSO) was diluted with N2-DMEM and added in a volume of 10 μl/well 24 hours before the activity measurement (final compound concentration: 0.01 to 1 μg/ml).
After removal of the medium by suction, a balanced salt solution containing 10% Alamar Blue (154 mM sodium chloride, 5.6 mM potassium chloride, 2.3 mM calcium chloride, 1.0 mM magnesium chloride, 3.6 mM sodium hydrogen carbonate, 5 mM glucose, 5 mM HEPES, pH 7.2) was added in a volume of 100 μl/well, and reacted in an incubator at 37° C. for 1 hour. The fluorescent intensity was detected using a fluorescence detector (a product of Hamamatsu Photonics K.K., excitation wavelength: 530 nm, measurement wavelength: 580 nm) to thereby measure the mitochondrial oxidation reduction activity.
The fluorescent intensity of the well of the cells cultured in a medium containing MPP^+ and each of the sample compounds was relatively evaluated based on the 100% fluorescent intensity of the well of the cells cultured in a medium containing DMSO alone (final concentration: 0.1%).
On the technique in general: The colour change of resazurin is a common sign of viable cells or microbes.

The melting point is the temperature, or range, at which the solid turns liquid. `CCCOc1ccc(C)c2c(=O)c(-c3ccc4c(c3)OCO4)c[nH]c12` [Example 60, 3-Benzo[1,3]dioxol-5-yl-5-methyl-8-propoxy-1H-quinolin-4-one] displayed a melting point of 110 to 115 °C. For the same compound, in data set [1], the activity at 0.01 µg/mL came to 52%, the activity at 0.03 µg/mL turned out to be 65%, the activity at 0.1 µg/mL came out at 75% and the activity at 0.3 µg/mL came to 70%. Besides, the activity at 1 µg/mL in data set [1] worked out at 44%.
`CCCOc1c(C)cc(C)c2c(=O)c(-c3ccc(OC)cc3)c[nH]c12` [Example 23, 3-(4-Methoxyphenyl)-5,7-dimethyl-8-propoxy-1H-quinolin-4-one] returned a melting point of 174 to 175 °C. Moreover, in data set [1], the activity at 0.01 µg/mL stood at 51%, the activity at 0.03 µg/mL came out at 63%, the activity at 0.1 µg/mL stood at 67% and the activity at 0.3 µg/mL came out at 68%. In data set [1], the activity at 1 µg/mL turned out to be 59%.
In turn, `COc1ccc(-c2c[nH]c3c(-c4ccco4)ccc(C)c3c2=O)cc1` [Example 96, 8-Furan-2-yl-3-(4-methoxyphenyl)-5-methyl-1H-quinolin-4-one] gave a melting point of 129 to 131 °C. Further, in data set [1], the activity at 0.01 µg/mL stood at 54%, the activity at 0.03 µg/mL was 64%, the activity at 0.1 µg/mL came out at 68% and the activity at 0.3 µg/mL turned out to be 60%. Besides, in data set [1], the activity at 1 µg/mL turned out to be 23%.
With `CCCOc1ccc(C)c2c(=O)c(-c3csc4ccccc34)c[nH]c12` [Example 63, 3-Benzo[b]thiophen-3-yl-5-methyl-8-propoxy-1H-quinolin-4-one], the melting point was in the range of 80 to 82 °C. In data set [1], the activity at 0.01 µg/mL turned out to be 40%, the activity at 0.03 µg/mL was 48%, the activity at 0.1 µg/mL stood at 57% and the activity at 0.3 µg/mL came to 43%. Besides, the activity at 1 µg/mL in data set [1] was 21%.
`CCCOc1ccc(C)c2c(=O)c(-c3ccncc3)c[nH]c12` [Example 95, 5-Methyl-8-propoxy-3-pyridin-4-yl-1H-quinolin-4-one] yielded a melting point of 112 to 113 °C. In data set [1], the activity at 0.01 µg/mL was 51%, the activity at 0.03 µg/mL was found to be 56%, the activity at 0.1 µg/mL came out at 57% and the activity at 0.3 µg/mL was 61%. Also, the activity at 1 µg/mL in data set [1] was found to be 47%.
`CCCCc1ccc(C(=O)N(C)C)c2c(=O)c(-c3ccc(OC)cc3)c[nH]c12` [Example 82, 8-Butyl-3-(4-methoxyphenyl)-4-oxo-1,4-dihydroquinolin-5-carboxylic acid dimethylamide] displayed a melting point of 198 to 200 °C. Besides, in data set [1], the activity at 0.01 µg/mL worked out at 63%, the activity at 0.03 µg/mL is 62%, the activity at 0.1 µg/mL was determined as 62% and the activity at 0.3 µg/mL amounted to 69%. In addition, the activity at 1 µg/mL in data set [1] amounted to 81%.
Consider `CCCOc1ccc(COC)c2c(=O)c(-c3ccc(OC)cc3)c[nH]c12` [Example 64, 5-Methoxymethyl-3-(4-methoxyphenyl)-8-propoxy-1H-quinolin-4-one], for which the melting point fell in the range of 81 to 83 °C. In data set [1], the activity at 0.01 µg/mL is 51%, the activity at 0.03 µg/mL was 56%, the activity at 0.1 µg/mL was 63% and the activity at 0.3 µg/mL was found to be 53%. Also, the activity at 1 µg/mL in data set [1] was 38%.
In turn, `CCCOc1ccc(C)c2c(=O)c(-c3ccsc3)c[nH]c12` [Example 58, 5-Methyl-8-propoxy-3-thiophen-3-yl-1H-quinolin-4-one] gave a melting point of 104 to 107 °C. For the same compound, in data set [1], the activity at 0.01 µg/mL was 42%, the activity at 0.03 µg/mL amounted to 53%, the activity at 0.1 µg/mL stood at 60% and the activity at 0.3 µg/mL amounted to 61%. Further, in data set [1], the activity at 1 µg/mL is 55%.
`COc1ccc(-c2c[nH]c3c(Br)ccc(C)c3c2=O)cc1` [Example 86, 8-Bromo-3-(4-methoxyphenyl)-5-methyl-1H-quinolin-4-one] returned a melting point of 185 to 186 °C. In data set [1], the activity at 0.01 µg/mL came to 60%, the activity at 0.03 µg/mL was 65%, the activity at 0.1 µg/mL is 65% and the activity at 0.3 µg/mL worked out at 65%. In addition, the activity at 1 µg/mL in data set [1] came out at 52%.
For `CCCOc1ccc(C)c2c(=O)c(-c3ccc(OC)cc3OC)c[nH]c12` [Example 20, 3-(2,4-Dimethoxyphenyl)-5-methyl-8-propoxy-1H-quinolin-4-one], the melting point lay in the range of 193 to 194 °C. For the same compound, in data set [1], the activity at 0.01 µg/mL came to 65%, the activity at 0.03 µg/mL is 67%, the activity at 0.1 µg/mL amounted to 74% and the activity at 0.3 µg/mL was determined as 78%. Also, the activity at 1 µg/mL in data set [1] is 77%.
For `COc1ccc(-c2c[nH]c3c(Oc4ccccc4)cccc3c2=O)cc1` [Example 18, 3-(4-Methoxyphenyl)-8-phenoxy-1H-quinolin-4-one], the melting point fell in the range of 250 to 251 °C. In data set [1], the activity at 0.01 µg/mL is 29%, the activity at 0.03 µg/mL worked out at 45%, the activity at 0.1 µg/mL stood at 44% and the activity at 0.3 µg/mL amounted to 47%. Besides, the activity at 1 µg/mL in data set [1] was found to be 30%.
`CCCOc1ccc(OC)c2c(=O)c(-c3ccc(Cl)cc3Cl)c[nH]c12` [Example 38, 3-(2,4-Dichlorophenyl)-5-methoxy-8-propoxy-1H-quinolin-4-one] registered a melting point of 125 °C. Also, in data set [1], the activity at 0.01 µg/mL is 47%, the activity at 0.03 µg/mL worked out at 54%, the activity at 0.1 µg/mL was 67% and the activity at 0.3 µg/mL was found to be 75%. Also, the activity at 1 µg/mL in data set [1] was found to be 65%.

The values above are taken from patent US20130217678A1, “PHARMACEUTICAL AGENT COMPRISING QUINOLONE COMPOUND” (OTSUKA PHARMACEUTICAL CO., LTD., priority 2008, published 2013).
